# Experimental data as given in publication PMC3920255 (Toxins, 2013).
# Numbered stars: 1 amine (or outer) side, 2 acyl side, 3 side chain; on linkers, the order of the positions; unused ones are H or OH. Bridge positions count the residues as written; N and C are the ends. Square brackets hold non-standard residues; d marks the D form. Peptide text beside a SMILES is read from it. Adda = CO[C@@H](Cc1ccccc1)[C@@H](C)/C=C(C)/C=C/[C@H](N[*:1])[C@H](C)C(=O)[*:2]; dAsp(3S-Me) = C[C@H](C(=O)[*:3])[C@@H](N[*:1])C(=O)[*:2]; d(γGlu) = O=C(O)[C@@H](CCC(=O)[*:2])N[*:1]; NMeDha = C=C(NC)C(=O)O; Dha = C=C(N)C(=O)O
# Test system: primary cultured rat hepatocytes
# Conditions: not given
row,Compound,IC50 (concentration showing 50% cell viability)
1,"C=C1C(=O)N[C@H](C)C(=O)N[C@@H](CC(C)C)C(=O)N[C@@H](C(=O)O)[C@H](C)C(=O)N[C@@H](CCCNC(=N)N)C(=O)N[C@@H](/C=C/C(C)=C/[C@H](C)[C@H](Cc2ccccc2)OC)[C@H](C)C(=O)N[C@@H](C(=O)O)CCC(=O)N1C [No.1, MC-LR, reference compound] (R[Adda][d(γGlu)][NMeDha][dA]L[dAsp(3S-Me)]-OH; lactam N-7)",0.800 µg/mL
2,"C=C1NC(=O)CC[C@H](C(=O)O)NC(=O)[C@@H](C)[C@H](/C=C/C(C)=C/[C@H](C)[C@H](Cc2ccccc2)OC)NC(=O)[C@H](CCCNC(=N)N)NC(=O)[C@@H](C)[C@H](C(=O)O)NC(=O)[C@H](CC(C)C)NC(=O)[C@@H](C)NC1=O [No.2, [Dha^7] MC-LR] (R[Adda][d(γGlu)][Dha][dA]L[dAsp(3S-Me)]-OH; lactam N-7)",0.217 µg/mL
3,"C=C1C(=O)N[C@H](C)C(=O)N[C@@H](CC(C)C)C(=O)N[C@@H](C(=O)O)CC(=O)N[C@@H](CCCNC(=N)N)C(=O)N[C@@H](/C=C/C(C)=C/[C@H](C)[C@H](Cc2ccccc2)OC)[C@H](C)C(=O)N[C@@H](C(=O)O)CCC(=O)N1C [No.3, [D-Asp^3] MC-LR]",0.217 µg/mL
4,"C=C1NC(=O)CC[C@H](C(=O)O)NC(=O)[C@@H](C)[C@H](/C=C/C(C)=C/[C@H](C)[C@H](Cc2ccccc2)OC)NC(=O)[C@H](CCCNC(=N)N)NC(=O)C[C@H](C(=O)O)NC(=O)[C@H](CC(C)C)NC(=O)[C@@H](C)NC1=O [No.4, [D-Asp^3, Dha^7] MC-LR]",0.217 µg/mL
5,"C/C=C1/NC(=O)CC[C@H](C(=O)O)NC(=O)[C@@H](C)[C@H](/C=C/C(C)=C/[C@H](C)[C@H](Cc2ccccc2)OC)NC(=O)[C@H](CCCNC(=N)N)NC(=O)C[C@H](C(=O)O)NC(=O)[C@H](CC(C)C)NC(=O)[C@@H](C)NC1=O [No.5, [D-Asp^3, E-Dhb^7] MC-LR]",0.133 µg/mL
6,"C/C=C1\NC(=O)CC[C@H](C(=O)O)NC(=O)[C@@H](C)[C@H](/C=C/C(C)=C/[C@H](C)[C@H](Cc2ccccc2)OC)NC(=O)[C@H](CCCNC(=N)N)NC(=O)C[C@H](C(=O)O)NC(=O)[C@H](CC(C)C)NC(=O)[C@@H](C)NC1=O [No.6, [D-Asp^3, Z-Dhb^7] MC-LR]",0.053 µg/mL
7,"C=C1C(=O)N[C@H](C)C(=O)N[C@@H](Cc2ccc(O)cc2)C(=O)N[C@@H](C(=O)O)[C@H](C)C(=O)N[C@@H](CCCNC(=N)N)C(=O)N[C@@H](/C=C/C(C)=C/[C@H](C)[C@H](Cc2ccccc2)OC)[C@H](C)C(=O)N[C@@H](C(=O)O)CCC(=O)N1C [No.7, MC-YR] (R[Adda][d(γGlu)][NMeDha][dA]Y[dAsp(3S-Me)]-OH; lactam N-7)",1.48 µg/mL
8,"C=C1NC(=O)CC[C@H](C(=O)O)NC(=O)[C@@H](C)[C@H](/C=C/C(C)=C/[C@H](C)[C@H](Cc2ccccc2)OC)NC(=O)[C@H](CCCNC(=N)N)NC(=O)[C@@H](C)[C@H](C(=O)O)NC(=O)[C@H](Cc2ccc(O)cc2)NC(=O)[C@@H](C)NC1=O [No.8, [Dha^7] MC-YR] (R[Adda][d(γGlu)][Dha][dA]Y[dAsp(3S-Me)]-OH; lactam N-7)",0.418 µg/mL
9,"C=C1C(=O)N[C@H](C)C(=O)N[C@@H](CCCNC(=N)N)C(=O)N[C@@H](C(=O)O)[C@H](C)C(=O)N[C@@H](CCCNC(=N)N)C(=O)N[C@@H](/C=C/C(C)=C/[C@H](C)[C@H](Cc2ccccc2)OC)[C@H](C)C(=O)N[C@@H](C(=O)O)CCC(=O)N1C [No.12, MC-RR] (R[Adda][d(γGlu)][NMeDha][dA]R[dAsp(3S-Me)]-OH; lactam N-7)",>10 µg/mL
10,"C=C1NC(=O)CC[C@H](C(=O)O)NC(=O)[C@@H](C)[C@H](/C=C/C(C)=C/[C@H](C)[C@H](Cc2ccccc2)OC)NC(=O)[C@H](CCCNC(=N)N)NC(=O)[C@@H](C)[C@H](C(=O)O)NC(=O)[C@H](CCCNC(=N)N)NC(=O)[C@@H](C)NC1=O [No.14, [Dha^7] MC-RR] (R[Adda][d(γGlu)][Dha][dA]R[dAsp(3S-Me)]-OH; lactam N-7)",5.33 µg/mL
11,"C=C1NC(=O)CC[C@H](C(=O)O)NC(=O)[C@@H](C)[C@H](/C=C/C(C)=C/[C@H](C)[C@H](Cc2ccccc2)OC)NC(=O)[C@H](CCCNC(=N)N)NC(=O)C[C@H](C(=O)O)NC(=O)[C@H](CCCNC(=N)N)NC(=O)[C@@H](C)NC1=O [No.15, [D-Asp^3, Dha^7] MC-RR]",4.11 µg/mL

# Same assay, conditions: 72 h
row,Compound,IC50 (concentration showing 50% cell viability)
1,"C=C1C(=O)N[C@H](C)C(=O)N[C@@H](CCc2ccc(O)cc2)C(=O)N[C@@H](C(=O)O)CC(=O)N[C@@H](CCCNC(=N)N)C(=O)N[C@@H](/C=C/C(C)=C/[C@H](C)[C@H](Cc2ccccc2)OC)[C@H](C)C(=O)N[C@@H](C(=O)O)CCC(=O)N1C [No.9, [D-Asp^3] MC-HtyR]",0.347 µg/mL
2,"C/C=C1/NC(=O)CC[C@H](C(=O)O)NC(=O)[C@@H](C)[C@H](/C=C/C(C)=C/[C@H](C)[C@H](Cc2ccccc2)OC)NC(=O)[C@H](CCCNC(=N)N)NC(=O)C[C@H](C(=O)O)NC(=O)[C@H](CCc2ccc(O)cc2)NC(=O)[C@@H](C)NC1=O [No.10, [D-Asp^3, E-Dhb^7] MC-HtyR]",0.327 µg/mL
3,"C/C=C1\NC(=O)CC[C@H](C(=O)O)NC(=O)[C@@H](C)[C@H](/C=C/C(C)=C/[C@H](C)[C@H](Cc2ccccc2)OC)NC(=O)[C@H](CCCNC(=N)N)NC(=O)C[C@H](C(=O)O)NC(=O)[C@H](CCc2ccc(O)cc2)NC(=O)[C@@H](C)NC1=O [No.11, [D-Asp^3, Z-Dhb^7] MC-HtyR]",0.120 µg/mL

# Test system: primary rat hepatocytes
# Conditions: cited from earlier work
row,Compound,"IC50 of MC-LR to primary rat hepatocytes, earlier study"
1,"C=C1C(=O)N[C@H](C)C(=O)N[C@@H](CC(C)C)C(=O)N[C@@H](C(=O)O)[C@H](C)C(=O)N[C@@H](CCCNC(=N)N)C(=O)N[C@@H](/C=C/C(C)=C/[C@H](C)[C@H](Cc2ccccc2)OC)[C@H](C)C(=O)N[C@@H](C(=O)O)CCC(=O)N1C [No.1, MC-LR, reference compound] (R[Adda][d(γGlu)][NMeDha][dA]L[dAsp(3S-Me)]-OH; lactam N-7)",0.048 µg/mL
